Experimental data taken from DBAASP.

What was measured:
Assay in all cases: ≥ marks a high value that may be exact or a test limit, other limits are often not marked, values filed in µg/mL are converted to µM
[1] = test system: Streptococcus mutans GS-5
[2] = test system: Streptococcus sanguinis ATCC 49295
[3] = test system: Streptococcus gordonii DL1
[4] = test system: Streptococcus mutans UA159
[5] = test system: Streptococcus mutans ATCC 25175
[6] = test system: Streptococcus mutans comD
[7] = test system: Streptococcus sanguinis NY101
[8] = test system: Streptococcus gordonii ATCC 10558
[9] = test system: Streptococcus mutans T8

Measured: MIC

CC(C)C[C@H](NC(=O)[C@H](CCCN=C(N)N)NC(=O)[C@H](Cc1ccccc1)NC(=O)[C@H](Cc1ccccc1)NC(=O)[C@@H](N)[C@@H](C)O)C(=O)N[C@@H](Cc1ccccc1)C(=O)N[C@@H](CC(N)=O)C(=O)N[C@@H](CCCN=C(N)N)C(=O)O [TFFRLFNR]
≥ 233 µM: [1] | [2] | [4] | [8]
≥ 60 µM: all other assays above
